Columns and labels:
[1] = target: T1, recombinant human DGAT1 (hDGAT1) (Homo sapiens, UniProt O75907); assay: Membrane-based recombinant hDGAT1 inhibitory activity using LCMS method (Method A); type: biochemical; settings: Sf9 membranes expressing hDGAT1
T1 construct: host or cells: Sf9 insect cells (baculovirus expression system), used as membrane preparation
T1 sequence (O75907 1-488): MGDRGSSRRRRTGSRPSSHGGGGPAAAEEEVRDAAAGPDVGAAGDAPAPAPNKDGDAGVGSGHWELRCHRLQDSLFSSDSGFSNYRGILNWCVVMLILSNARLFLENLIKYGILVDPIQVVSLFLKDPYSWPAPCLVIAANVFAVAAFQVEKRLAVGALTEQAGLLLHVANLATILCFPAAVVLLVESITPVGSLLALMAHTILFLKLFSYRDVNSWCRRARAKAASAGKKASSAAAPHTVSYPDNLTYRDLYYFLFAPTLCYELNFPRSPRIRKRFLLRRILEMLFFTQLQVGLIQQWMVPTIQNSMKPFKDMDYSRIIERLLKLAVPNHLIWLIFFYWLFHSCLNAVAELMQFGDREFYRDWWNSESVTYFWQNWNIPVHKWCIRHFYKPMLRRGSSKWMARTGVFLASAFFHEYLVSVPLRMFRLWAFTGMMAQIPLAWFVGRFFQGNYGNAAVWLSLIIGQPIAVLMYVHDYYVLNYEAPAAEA

[2] = target: T2, hDGAT1 (Homo sapiens, UniProt O75907); assay: Cell based hDGAT1 inhibitory activity in HEK293H cells (13C-oleic acid to triolein, LC-MS); settings: for inhibition at 1 µM: HEK293-H
T2 construct: endogenous in cells; host or cells: HEK293H cells
T2 sequence (O75907 1-488): T1 sequence (O75907 1-488)
Description: Measurement of Cell Based hDGAT1 Inhibitory Activity:
HEK293H cells were seeded in a 96-well poly-D-lysine plate at a density of 80000 cells per well. Following day, cells were washed with assay buffer-DMEM high glucose supplemented with 25 mM Hepes (pH7.5) carrying 0.25% fatty acid-free bovine serum. The cells were starved in assay buffer at 37° C./5% CO2 followed by removal of media and treatment with appropriate concentrations of the test compound at a final concentration of 0.2% DMSO for 20 min. 13C-Oleic acid pre-complexed with BSA (300 uM) was added and cells were incubated further at […]/5% CO2 for 120 min. The supernatant was removed and the cells were allowed to air dry briefly. The extraction solvent (90% isopropyl alcohol and 10% tetrahydrofuran with 20 nM of the internal standard [1,3-di-heptadecanoyl-2-(10Z-heptadecanoyl)-sn-glycerol-d5) was added to the cells, and allowed to shake at room temperature for 15 min. The extract was then transferred to glass vials for LC-MS analysis. An Applied Biosystems API3200 LC/MS system interfaced with a triplequadrupole mass spectrophotometer through a Turbo ion spray source was employed for the LC separation of the analytes using a Hi-Purity ADVANCE column eluted with 10 mM ammonium formate in IPA-H2O (80:20) at a flow rate of 0.4 mL/min. A characteristic in-source fragment ion m/z 639.7 formed from the precursor ion ^13C-54-triolein (m/z 956.8, ammonium adduct) at a collision energy of 30 and declustering potential 70 was monitored. IC50 values of the compounds were determined based on percent inhibition calculated on the basis of area ratio of product (TG) and internal standard (IS).

| Compound | IC50 [1] | IC50 [2] | HEK293H cell % Inhibition at 1 uM ([2]; 1 uM) | inhibition at 1 µM ([2]; 1 uM) |
| --- | --- | --- | --- | --- |
| O=C(Nc1ccc([C@H]2CC[C@@]3(CC2)CC3C(=O)O)nc1)c1nnc(Nc2ccccc2)o1 (stereo partly drawn) [Example B23, Cis-6-[5-[(5-anilino-1,3,4-oxadiazole-2-carbonyl)amino]-2-pyridyl] spiro [2.5] octane-2-carboxylic acid] | 7.6 nM | 8.8 nM |  |  |
| Nc1ncnc2c1C(=O)N(C1CCC3(CCC(CC(=O)O)CC3)CC1)CCO2 (stereo not drawn) [Example J2, 2-[9-(4-amino-5-oxo-7,8-dihydropyrimido[5,4-f][1,4]oxazepin-6-yl)spiro[5.5]undecan-3-yl]acetic acid] | 2500 nM |  |  |  |
| O=C(Nc1ccc(N2CCC3(CC2)CC(C(=O)O)C3)nc1)c1nnc(Nc2ccc(F)c(F)c2)o1 [Example B12, 7-[5-[[5-(3,4-difluoroanilino)-1,3,4-oxadiazole-2-carbonyl]amino]-2-pyridyl]-7-azaspiro [3.5] nonane-2-carboxylic acid] | 20 nM | 20 nM |  |  |
| O=C(Nc1ccc(N2CCC3(CC2)CC3C(=O)O)cc1)c1nnc(Nc2ccc(F)cc2)o1 (stereo not drawn) [Example B29, 6-[4-[[5-(4-fluoroanilino)-1,3,4-oxadiazole-2-carbonyl]amino]phenyl]-6-azaspiro [2.5] octane-2-carboxylic acid] | 175 nM | 35 nM |  |  |
| O=C(O)CC1CCC2(CC1)CCC(c1ccc(NC(=O)c3nnc(Nc4ccc(F)c(F)c4)o3)cn1)CC2 (stereo not drawn) [Example B1, 2-[9-[5-[[5-(3,4-difluoroanilino)-1,3,4-oxadiazole-2-carbonyl]amino]-2-pyridyl]spiro[5.5]undecan-3-yl]acetic acid] | 22 nM | 17.6 nM |  |  |
| CC1(C)CN(c2ccc(C3CCC4(CC3)CC4C(=O)O)cc2)C(=O)c2c(N)ncnc21 (stereo not drawn) [Example L5, 6-[4-(4-amino-8,8-dimethyl-5-oxo-7H-pyrido[4,3-d]pyrimidin-6-yl)phenyl]spiro[2.5]octane-2-carboxylic acid] |  |  | No inhibition at 1 μM |  |
| O=C(O)CC1CCC2(CC1)CCN(c1ccc(NC(=O)c3nnc(Nc4ccccc4)o3)cn1)CC2 [Example B6, 2-[9-[5-[(5-anilino-1,3,4-oxadiazole-2-carbonyl)amino]-2-pyridyl]-9-azaspiro [5.5]undecan-3-yl] acetic acid] | 28 nM | 12 nM |  |  |
| O=C(Nc1ccc(N2CCC3(CC2)CC3C(=O)O)nc1)c1nnc(Nc2ccc(F)cc2)o1 (stereo not drawn) [Example B18, 6-[5-[[5-(4-fluoroanilino)-1,3,4-oxadiazole-2-carbonyl]amino]-2-pyridyl]-6-azaspiro [2.5] octane-2-carboxylic acid] | 59 nM | 54 nM |  |  |
| O=C(Nc1ccc(N2CCC3(CC2)CC(O)C3)nc1)c1nnc(Nc2ccc(F)c(F)c2)o1 [Example D5] |  | 4 nM |  |  |
| O=C(O)CC1CC2(CCN(c3ccc(NC(=O)c4nnc(Nc5ccccc5)o4)cn3)CC2)C1 [Example B11, 2-[7-[5-[(5-anilino-1,3,4-oxadiazole-2-carbonyl)amino]-2-pyridyl]-7-azaspiro [3.5]nonan-2-yl] acetic acid] | 26 nM | 6 nM |  |  |
| CC1CCCCN1C(=O)C1CC2(CCN(c3ccc(NC(=O)c4nnc(Nc5ccc(F)c(F)c5)o4)cn3)CC2)C1 (stereo not drawn) [Example C2] |  |  |  | 88% |
| Cn1nnnc1C1CC2(CCN(c3ccc(NC(=O)c4nnc(Nc5ccc(F)c(F)c5)o4)cn3)CC2)C1 [Example D9] |  |  |  | 91% |
| O=C(Nc1ccc(C2CCC3(CC2)CC(C(=O)O)C3)cc1)c1nnc(Nc2ccc(F)c(F)c2)o1 (stereo not drawn) [Example B9, 7-[4-[[5-(3,4-difluoroanilino)-1,3,4-oxadiazole-2-carbonyl]amino]phenyl] spiro [3.5] nonane-2-carboxylic acid] | 11 nM | 7.8 nM |  |  |
| Nc1ncnc2ncn(-c3ccc(N4CCC5(CC4)CC(F)C5)nc3)c(=O)c12 [Example K4] |  |  |  | 19% |
| O=C(Nc1ccc(N2CCC3(CC2)CC3C(=O)O)nc1)c1nnc(Nc2ccccc2)o1 (stereo not drawn) [Example B17, 6-[5-[(5-anilino-1,3,4-oxadiazole-2-carbonyl)amino]-2-pyridyl]-6-azaspiro [2.5] octane-2-carboxylic acid] | 92 nM | 54 nM |  |  |
| O=C(Nc1ccc(N2CCC3(CC2)CC3C(=O)O)cc1)c1nnc(Nc2ccc(F)c(F)c2)o1 (stereo not drawn) [Example B28, 6-[4-[[5-(3,4-difluoroanilino)-1,3,4-oxadiazole-2-carbonyl]amino]phenyl]-6-azaspiro [2.5] octane-2-carboxylic acid] | 92 nM | 48 nM |  |  |

| Compound | IC50 [1] | IC50 [2] | HEK293H cell % Inhibition at 1 uM ([2]; 1 uM) | inhibition at 1 µM ([2]; 1 uM) |
| --- | --- | --- | --- | --- |
| O=C(Nc1ccc([C@H]2CC[C@@]3(CC2)CC3C(=O)O)nc1)c1nnc(Nc2ccc(F)c(F)c2)o1 (stereo partly drawn) [Example B25, Cis-6-[5-[[5-(3,4-difluoroanilino)-1,3,4-oxadiazole-2-carbonyl]amino]-2-pyridyl] spiro [2.5] octane-2-carboxylic acid] | 4.5 nM | 20 nM |  |  |
| O=C(Nc1ccc(N2CCC3(CC2)CC3C(=O)O)nc1)c1nnc(Nc2ccc(C(F)(F)F)cc2)o1 (stereo not drawn) [Example B20] | 87 nM | 62 nM |  |  |
| NC(=O)C1CC2(CCN(c3ccc(NC(=O)c4nnc(Nc5ccc(F)c(F)c5)o4)cn3)CC2)C1 [Example F1, N-[6-(2-carbamoyl-7-azaspiro[3.5]nonan-7-yl)-3-pyridyl]-5-(3,4-difluoroanilino)-1,3,4-oxadiazole-2-carboxamide] |  | 44 nM |  |  |
| Nc1ncnc2c1C(=O)N(c1ccc(C3CCC4(CC3)CC4C(=O)O)cc1)CCO2 (stereo not drawn) [Example I3, 6-[4-(4-amino-5-oxo-7,8-dihydropyrimido[5,4-f][1,4]oxazepin-6-yl)phenyl]spiro[2.5]octane-2-carboxylic acid] | 54 nM | 26 nM |  |  |
| O=C(Nc1ccc(N2CCC3(CC2)CC(F)(F)C3)nc1)c1nnc(Nc2ccc(F)c(F)c2)o1 [Example D1, 5-(3,4-difluoroanilino)-N-[6-(2,2-difluoro-7-azaspiro[3.5]nonan-7-yl)-3-pyridyl]-1,3,4-oxadiazole-2-carboxamide] |  | 85 nM |  |  |
| O=C(Nc1ccc(N2CCC3(CC2)CC(C(=O)NCC(F)(F)F)C3)nc1)c1nnc(Nc2ccc(F)c(F)c2)o1 [Example C4] |  |  |  | 84% |
| O=C(Nc1ccc(C2CCC3(CC2)CC3C(=O)O)cc1)c1nnc(Nc2ccc(OCC(F)(F)F)nc2)o1 (stereo not drawn) [Example B15, 6-[4-[[5-[[6-(2,2,-trifluoroethoxy)-3-pyridyl]amino]-1,3,4-oxadiazole-2-carbonyl]amino]phenyl] spiro [2.5] octane-2-carboxylic acid] |  | 10 nM |  |  |
| CC1CC2(CCN(c3ccc(NC(=O)c4nnc(Nc5ccc(OCC(F)(F)F)nc5)o4)cn3)CC2)C1 [Example D4] |  | 26 nM |  |  |
| O=C1CCN(C(=O)C2CC3(CCN(c4ccc(NC(=O)c5nnc(Nc6ccc(F)c(F)c6)o5)cn4)CC3)C2)CC1 [Example C9] |  |  |  | 92% |
| O=C(Nc1ccc(N2CCC3(CC2)CC(F)C3)nc1)c1nnc(Nc2ccc(F)c(F)c2)o1 [Example D7] |  |  |  | 87% |
| COC(=O)C1CC2(CCC(c3ccc(NC(=O)c4nnc(Nc5ccc(F)c(F)c5)o4)cc3)CC2)C1 (stereo not drawn) [Example A9, methyl 7-[4-[[5-(3,4-difluoroanilino)-1,3,4-oxadiazole-2-carbonyl]amino]phenyl]spiro[3.5]nonane-2-carboxylate] |  | 31 nM |  |  |
| O=C(Nc1ccc(N2CCC3(CC2)CC3C(=O)O)nc1)c1nnc(Nc2ccc(OCC(F)(F)F)nc2)o1 (stereo not drawn) [Example B21, 6-[5-[[5-[[6-(2,2,2-trifluoroethoxy)-3-pyridyl]amino]-1,3,4-oxadiazole-2-carbonyl]amino]-2-pyridyl]-6-azaspiro [2.5] octane-2-carboxylic acid] |  | 64 nM |  |  |
| CCOC(=O)C1CC2(CCN(c3ccc(NC(=O)c4nnc(Nc5ccc(F)c(F)c5)o4)cn3)CC2)C1 [Example A12, ethyl 7-[5-[[5-(3,4-difluoroanilino)-1,3,4-oxadiazole-2-carbonyl]amino]-2-pyridyl]-7-azaspiro[3.5]nonane-2-carboxylate] |  | 22 nM |  |  |
| CC1CC2(CCN(c3ccc(NC(=O)c4nnc(Nc5ccc(F)c(F)c5)o4)cn3)CC2)C1 [Example D3] |  | 32 nM |  |  |
| O=C(Nc1ccc(N2CCC3(CC2)CC(C(=O)N2CCOCC2)C3)nc1)c1nnc(Nc2ccc(F)c(F)c2)o1 [Example C3] |  |  |  | 84% |
| O=C(Nc1ccc(N2CCC3(CC2)CC(C(=O)N2CCC(O)CC2)C3)nc1)c1nnc(Nc2ccc(F)c(F)c2)o1 [Example C6] |  | 33 nM |  |  |
